{"source": "patent US6437128B1", "about": "“Cribrostatins 3-5” (Arizona Board of Regents, priority 2001, dated 2002)", "key": {"[1]": {"system": "Escherichia coli (ATCC 25922)", "experiment": "Antimicrobial disk diffusion", "type": "cell-based"}, "[2]": {"system": "Penicillin-resistant N. gonorrhoeae (clinical isolate)", "experiment": "Antimicrobial disk diffusion", "type": "cell-based", "conditions": "listed as 5"}, "[3]": {"system": "HL-60 (TB)", "experiment": "NCI 60-cell screen", "type": "cell-based, human", "conditions": "Homo sapiens, averaged, quadruplicate, upper limit 10^−5 M, read-out: negative log10 GI50 (converted)"}, "[4]": {"system": "SF-295", "experiment": "NCI 60-cell screen", "type": "cell-based, human", "conditions": "Homo sapiens, averaged, quadruplicate, upper limit 10^−5 M, read-out: negative log10 GI50 (converted)"}, "[5]": {"system": "OVCAR-3", "experiment": "NCI 60-cell screen", "type": "cell-based, human", "conditions": "Homo sapiens, averaged, quadruplicate, upper limit 10^−5 M, read-out: negative log10 GI50 (converted)"}, "[6]": {"system": "KM20L2 (Colon)", "experiment": "ASU-CRI minipanel of human cancer cell lines", "type": "cell-based", "conditions": "Homo sapiens, KM-20L2, read-out: GI50", "source_text": "(§1) Individual cell line response values are provided in the Experimental."}, "[7]": {"system": "NCI-H460 (Lung-NSC)", "experiment": "ASU-CRI minipanel of human cancer cell lines", "type": "cell-based", "conditions": "Homo sapiens, read-out: GI50", "source_text": "as §1"}, "[8]": {"system": "OVCAR-3 (Ovarian)", "experiment": "ASU-CRI minipanel of human cancer cell lines", "type": "cell-based", "conditions": "Homo sapiens; Ovarian OVCAR-3; read-out: GI50", "source_text": "as §1"}, "[9]": {"system": "SF-295 (CNS)", "experiment": "ASU-CRI minipanel of human cancer cell lines", "type": "cell-based", "conditions": "Homo sapiens; CNS SF-295; read-out: GI50", "source_text": "as §1"}, "[10]": {"system": "FADU (Pharynx-sq)", "experiment": "ASU-CRI minipanel of human cancer cell lines", "type": "cell-based", "source_text": "as §1"}, "[11]": {"system": "SW-1736 (Thyroid ca)", "experiment": "ASU-CRI minipanel of human cancer cell lines", "type": "cell-based", "conditions": "Thyroid ca SW-1736", "source_text": "as §1"}, "[12]": {"system": "DU-145 (Prostate)", "experiment": "ASU-CRI minipanel of human cancer cell lines", "type": "cell-based", "conditions": "Homo sapiens; Prostate DU-145; read-out: GI50", "source_text": "as §1"}, "[13]": {"system": "SK-N-SH (Neuroblast)", "experiment": "ASU-CRI minipanel of human cancer cell lines", "type": "cell-based", "source_text": "as §1"}, "[14]": {"system": "OVCAR-8", "experiment": "NCI 60-cell screen", "type": "cell-based, human", "conditions": "Homo sapiens, averaged, quadruplicate, upper limit 10^−5 M, read-out: negative log10 GI50 (converted)"}, "[15]": {"system": "UACC-62", "experiment": "NCI 60-cell screen", "type": "cell-based, human", "conditions": "Homo sapiens, averaged, quadruplicate, upper limit 10^−5 M, read-out: negative log10 GI50 (converted)"}, "[16]": {"system": "KM 12", "experiment": "NCI 60-cell screen", "type": "cell-based, human", "conditions": "Homo sapiens, KM12, averaged, quadruplicate, upper limit 10^−5 M, read-out: negative log10 GI50 (converted)"}, "[17]": {"system": "K-562", "experiment": "NCI 60-cell screen", "type": "cell-based, human", "conditions": "Homo sapiens, K562, averaged, quadruplicate, upper limit 10^−5 M, read-out: negative log10 GI50 (converted)"}, "[18]": {"system": "PC-3", "experiment": "NCI 60-cell screen", "type": "cell-based, human", "conditions": "Homo sapiens, averaged, quadruplicate, upper limit 10^−5 M, read-out: negative log10 GI50 (converted)"}, "[19]": {"system": "MOLT-4", "experiment": "NCI 60-cell screen", "type": "cell-based, human", "conditions": "Homo sapiens, averaged, quadruplicate, upper limit 10^−5 M, read-out: negative log10 GI50 (converted)"}, "[20]": {"system": "NCI-H226", "experiment": "NCI 60-cell screen", "type": "cell-based, human", "conditions": "Homo sapiens, averaged, quadruplicate, upper limit 10^−5 M, read-out: negative log10 GI50 (converted)"}, "[21]": {"system": "MDA-MB-231/ATCC", "experiment": "NCI 60-cell screen", "type": "cell-based, human", "conditions": "Homo sapiens, averaged, quadruplicate, upper limit 10^−5 M, read-out: negative log10 GI50 (converted)"}, "[22]": {"system": "SW-620", "experiment": "NCI 60-cell screen", "type": "cell-based, human", "conditions": "Homo sapiens, averaged, quadruplicate, upper limit 10^−5 M, read-out: negative log10 GI50 (converted)"}, "[23]": {"system": "NCI-H460", "experiment": "NCI 60-cell screen", "type": "cell-based, human", "conditions": "Homo sapiens, averaged, quadruplicate, upper limit 10^−5 M, read-out: negative log10 GI50 (converted)"}}}
{"smiles": "C/C=C(/C)C(=O)OC[C@H]1C2=C(C=C3[C@H]4c5c(O)c(OC)c(C)c(O)c5C(=O)[C@@H](C(=O)N31)N4C)C(=O)C(C)=C(OC)C2=O", "note": "[Cribrostatin 4, cribrostatin 4]", "values": [{"measurement": "Minimum inhibitory concentration", "setting": "[1]", "result": "* (No inhibition at 100 μg/disk)"}, {"measurement": "Minimum inhibitory concentration", "setting": "[2]", "result": "1.56-3.12 μg/disk"}, {"measurement": "GI50", "setting": "[3]", "result": 5.37, "unit": "µM"}, {"measurement": "GI50", "setting": "[4]", "result": 8.91, "unit": "µM"}, {"measurement": "melting point", "result": "190 to 192 °C (dec.)"}, {"measurement": "GI50", "setting": "[5]", "result": 3.63, "unit": "µM"}, {"measurement": "GI50", "setting": "[6]", "result": "> 10", "unit": "µg/mL"}, {"measurement": "GI50", "setting": "[7]", "result": "> 10", "unit": "µg/mL"}, {"measurement": "GI50", "setting": "[8]", "result": 2.2, "unit": "µg/mL"}, {"measurement": "GI50", "setting": "[9]", "result": "> 10", "unit": "µg/mL"}, {"measurement": "GI50", "setting": "[10]", "result": 0.26, "unit": "µg/mL"}, {"measurement": "GI50", "setting": "[11]", "result": "> 10", "unit": "µg/mL"}, {"measurement": "GI50", "setting": "[12]", "result": "> 10", "unit": "µg/mL"}, {"measurement": "GI50", "setting": "[13]", "result": 3.6, "unit": "µg/mL"}, {"measurement": "GI50", "setting": "[14]", "result": 4.27, "unit": "µM"}, {"measurement": "GI50", "setting": "[15]", "result": 9.77, "unit": "µM"}, {"measurement": "GI50", "setting": "[16]", "result": 9.12, "unit": "µM"}, {"measurement": "GI50", "setting": "[17]", "result": 4.37, "unit": "µM"}, {"measurement": "GI50", "setting": "[18]", "result": 9.12, "unit": "µM"}, {"measurement": "GI50", "setting": "[19]", "result": 1.91, "unit": "µM"}, {"measurement": "GI50", "setting": "[20]", "result": 7.94, "unit": "µM"}, {"measurement": "GI50", "setting": "[21]", "result": 2.69, "unit": "µM"}, {"measurement": "GI50", "setting": "[22]", "result": 6.92, "unit": "µM"}, {"measurement": "GI50", "setting": "[23]", "result": 7.59, "unit": "µM"}]}
